# Experimental data taken from patent US9382197B2, “Substituted hydroxamic acids and uses thereof” (Millennium Pharmaceuticals, Inc., priority 2010, dated 2016).
# Biological target: T1, purified human HDAC6 (Homo sapiens, UniProt Q9UBN7)
# T1 construct: purchased BPS Bioscience 5006
# T1 sequence (Q9UBN7 1-1215): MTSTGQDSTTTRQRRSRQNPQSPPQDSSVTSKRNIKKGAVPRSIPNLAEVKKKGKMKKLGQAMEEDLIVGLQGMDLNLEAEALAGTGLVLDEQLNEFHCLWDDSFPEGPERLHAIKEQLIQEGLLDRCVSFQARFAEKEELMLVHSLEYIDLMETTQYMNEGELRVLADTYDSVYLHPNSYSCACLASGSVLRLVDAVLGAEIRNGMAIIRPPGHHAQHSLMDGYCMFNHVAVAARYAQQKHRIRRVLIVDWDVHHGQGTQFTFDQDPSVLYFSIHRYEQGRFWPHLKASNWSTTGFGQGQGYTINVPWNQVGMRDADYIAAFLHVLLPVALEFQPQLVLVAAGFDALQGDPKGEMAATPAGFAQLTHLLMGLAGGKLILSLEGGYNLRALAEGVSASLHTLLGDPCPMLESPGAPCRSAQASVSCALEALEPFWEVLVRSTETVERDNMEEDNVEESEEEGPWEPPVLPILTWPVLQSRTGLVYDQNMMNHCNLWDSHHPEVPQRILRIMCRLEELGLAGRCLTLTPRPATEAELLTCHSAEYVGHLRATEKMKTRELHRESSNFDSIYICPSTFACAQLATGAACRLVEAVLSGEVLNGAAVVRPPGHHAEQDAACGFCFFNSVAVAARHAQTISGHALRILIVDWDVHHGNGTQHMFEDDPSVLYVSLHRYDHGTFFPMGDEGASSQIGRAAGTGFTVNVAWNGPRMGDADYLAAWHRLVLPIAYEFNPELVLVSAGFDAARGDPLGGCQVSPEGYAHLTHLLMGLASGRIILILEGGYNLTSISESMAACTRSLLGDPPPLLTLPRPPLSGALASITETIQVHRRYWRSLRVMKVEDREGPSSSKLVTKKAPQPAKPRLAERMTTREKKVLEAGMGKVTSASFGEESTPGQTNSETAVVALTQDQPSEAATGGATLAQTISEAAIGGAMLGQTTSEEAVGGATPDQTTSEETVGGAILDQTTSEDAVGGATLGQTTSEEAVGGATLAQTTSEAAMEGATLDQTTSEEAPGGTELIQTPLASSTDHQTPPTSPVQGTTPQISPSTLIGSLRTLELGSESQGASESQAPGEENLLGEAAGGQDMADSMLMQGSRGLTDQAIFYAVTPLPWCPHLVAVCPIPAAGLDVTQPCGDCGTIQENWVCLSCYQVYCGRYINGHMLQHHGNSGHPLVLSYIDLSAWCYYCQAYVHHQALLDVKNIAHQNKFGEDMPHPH
# Assay: HDAC6 Enzyme Assay
# Assay type: biochemical
# Conditions: bin: greater than 1 μM
# In short: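 Deacetylated product quantified after trypsin digestion as released AMC (340/460 nm), following a 1 h, 30 °C reaction of human HDAC6 with Ac-RGK(Ac)-AMC peptide, quenched by trichostatin A. IC50 derived from DMSO-normalized curves.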
row,IC50 [nM],SMILES
1,> 1000,"CC(C)[C@@H](NS(=O)(=O)c1ccc(C(F)(F)F)cc1)c1ccc(C(=O)NO)cc1 [Compound I-189, N-hydroxy-4-[(1R)-2-methyl-1-({[4-(trifluoromethyl)phenyl]sulfonyl}amino)propyl]benzamide]"
2,> 1000,"Cc1oc(-c2ccccc2)nc1CC(=O)NC(C)c1cccc(C(=O)NO)c1 (centres unmarked) [Compound I-234, N-hydroxy-3-(1-{[(5-methyl-2-phenyl-1,3-oxazol-4-yl)acetyl]amino}ethyl)benzamide]"
3,> 1000,"Cn1c(C(=O)NC(c2ccc(C(=O)NO)cc2)C(C)(C)C)cc(Cl)c1Cl (centres unmarked) [Compound I-386, 4,5-dichloro-N-(1-{4-[(hydroxyamino)carbonyl]phenyl}-2,2-dimethylpropyl)-1-methyl-1H-pyrrole-2-carboxamide]"
4,> 1000,"C[C@@H](NS(=O)(=O)c1ccc(C(F)(F)F)cc1)c1cccc(C(=O)NO)c1 [Compound I-403, N-hydroxy-3-[(1R)-1-({[4-(trifluoromethyl)phenyl]sulfonyl}amino)ethyl]benzamide]"
5,> 1000,"COc1cc(C(=O)NO)ccc1C(C)NC(=O)c1cccn1C (centres unmarked) [Compound I-481, N-(1-{4-[(hydroxyamino)carbonyl]-2-methoxyphenyl}ethyl)-1-methyl-1H-pyrrole-2-carboxamide]"
6,> 1000,"CC(NC(=O)c1cc2oc(-c3ccc(C(F)(F)F)cc3)cc2n1C)c1cccc(C(=O)NO)c1 (centres unmarked) [Compound I-72, N-(1-{3-[(hydroxyamino)carbonyl]phenyl}ethyl)-4-methyl-2-[4-(trifluoromethyl)phenyl]-4H-furo[3,2-b]pyrrole-5-carboxamide]"
7,> 1000,"Cc1c(C(=O)NC(c2cccc(C(=O)NO)c2)C(C)C)oc2ccccc12 (centres unmarked) [Compound I-93, N-(1-{3-[(hydroxyamino)carbonyl]phenyl}-2-methylpropyl)-3-methyl-1-benzofuran-2-carboxamide]"
8,> 1000,"C[C@@H](NC(=O)NC12CC3CC(CC(C3)C1)C2)c1cccc(C(=O)NO)c1 [Compound I-343, 3-[(1R)-1-({[1-adamantylamino]carbonyl}amino)ethyl]-N-hydroxybenzamide]"
9,> 1000,"Cc1oc(-c2ccccc2)nc1CC(=O)NC(c1ccc(C(=O)NO)cc1)C(C)(C)C (centres unmarked) [Compound I-80, 4-(2,2-dimethyl-1-{[(5-methyl-2-phenyl-1,3-oxazol-4-yl)acetyl]amino}propyl)-N-hydroxybenzamide]"

# Same assay, conditions: purified human HDAC6, substrate Ac-Arg-Gly-Lys(Ac)-AMC, 1 hour at 30° C.; reported as bins
row,IC50 [nM],SMILES
1,100 to 500,"C[C@@H](NC(=O)c1ccc(-c2ccccc2)cc1)c1cccc(C(=O)NO)c1 [Compound I-121, N-((1R)-1-{3-[(hydroxyamino)carbonyl]phenyl}ethyl)biphenyl-4-carboxamide]"
2,< 100,"Cc1c(C(=O)N[C@H](C)c2ccc(C(=O)NO)cc2)sc2ccccc12 [Compound I-12, N-((1R)-1-{4-[(hydroxyamino)carbonyl]phenyl}ethyl)-3-methyl-1-benzothiophene-2-carboxamide]"
3,100 to 500,"O=C(NO)c1ccc([C@@H](NC(=O)c2cc3ccccc3s2)C2CC2)cc1 [Compound I-249, N-((S)-cyclopropyl{4-[(hydroxyamino)carbonyl]phenyl}methyl)-1-benzothiophene-2-carboxamide]"
4,100 to 500,"CC(NC(=O)c1cn(C)c2ccccc12)c1cccc(C(=O)NO)c1 (centres unmarked) [Compound I-353, N-(1-{3-[(hydroxyamino)carbonyl]phenyl}ethyl)-1-methyl-1H-indole-3-carboxamide]"
5,100 to 500,"Cn1c(C(=O)NC(c2ccc(C(=O)NO)cc2)C(C)(C)C)cc2ccccc21 (centres unmarked) [Compound I-364, N-(1-{4-[(hydroxyamino)carbonyl]phenyl}-2,2-dimethylpropyl)-1-methyl-1H-indole-2-carboxamide]"
6,< 100,"CC(NC(=O)Nc1c(F)cccc1F)c1ccc(C(=O)NO)cc1 (centres unmarked) [Compound I-261, 4-[1-({[(2,6-difluorophenyl)amino]carbonyl}amino)ethyl]-N-hydroxybenzamide]"
7,< 100,"Cc1c(C(=O)NC(C)c2ccc(C(=O)NO)cc2)oc2ccccc12 (centres unmarked) [Compound I-7, N-(1-{4-[(hydroxyamino)carbonyl]phenyl}ethyl)-3-methyl-1-benzofuran-2-carboxamide]"
8,< 100,"CC(C)[C@@H](NC(=O)c1cc2ccccc2o1)c1ccc(C(=O)NO)cc1 [Compound I-22, N-((1R)-1-{4-[(hydroxyamino)carbonyl]phenyl}-2-methylpropyl)-1-benzofuran-2-carboxamide]"
9,100 to 500,"Cc1c(C(=O)NC(c2ccc(C(=O)NO)cc2)C(C)(C)C)cnn1-c1ccccc1 (centres unmarked) [Compound I-182, N-(1-{4-[(hydroxyamino)carbonyl]phenyl}-2,2-dimethylpropyl)-5-methyl-1-phenyl-1H-pyrazole-4-carboxamide]"
10,< 100,"CC(NC(=O)c1ccc2nsnc2c1)c1ccc(C(=O)NO)cc1 (centres unmarked) [Compound I-233, N-(1-{4-[(hydroxyamino)carbonyl]phenyl}ethyl)-2,1,3-benzothiadiazole-5-carboxamide]"
11,< 100,"CC(C)C(NC(=O)c1ccc(-c2ccccc2)[nH]c1=O)c1ccc(C(=O)NO)cc1 (centres unmarked) [Compound I-375, N-(1-{4-[(hydroxyamino)carbonyl]phenyl}-2-methylpropyl)-2-oxo-6-phenyl-1,2-dihydropyridine-3-carboxamide]"
12,100 to 500,"C[C@@H](NC(=O)c1cc2oc(-c3ccccc3)cc2n1C)c1cccc(C(=O)NO)c1 [Compound I-16, N-((1R)-1-{3-[(hydroxyamino)carbonyl]phenyl}ethyl)-4-methyl-2-phenyl-4H-furo[3,2-b]pyrrole-5-carboxamide]"
13,< 100,"CC(NC(=O)C1CC=CCC1)c1ccc(C(=O)NO)cc1 (centres unmarked) [Compound I-348, 4-{1-[(cyclohex-3-en-1-ylcarbonyl)amino]ethyl}-N-hydroxybenzamide]"
14,< 100,"CCC[C@@H](NC(=O)c1ccc(OC)cc1)c1ccc(C(=O)NO)cc1 [Compound I-146, N-((1R)-1-{4-[(hydroxyamino)carbonyl]phenyl}butyl)-4-methoxybenzamide]"
15,100 to 500,"Cc1ccc(S(=O)(=O)NC(C)c2ccc(C(=O)NO)cc2)c(C)c1 (centres unmarked) [Compound I-78, 4-(1-{[(2,4-dimethylphenyl)sulfonyl]amino}ethyl)-N-hydroxybenzamide]"
16,100 to 500,"CC(C)C(NC(=O)Cc1csc2ccc(Cl)cc12)c1ccc(C(=O)NO)cc1 (centres unmarked) [Compound I-206, 4-(1-{[(5-chloro-1-benzothien-3-yl)acetyl]amino}-2-methylpropyl)-N-hydroxybenzamide]"
17,100 to 500,"Cc1onc(-c2ccccc2)c1NC(=O)NC(C)c1ccc(C(=O)NO)cc1 (centres unmarked) [Compound I-305, N-hydroxy-4-[1-({[(5-methyl-3-phenylisoxazol-4-yl)amino]carbonyl}amino)ethyl]benzamide]"
18,100 to 500,"COc1cc(C(=O)NO)ccc1C(C)NC(=O)c1cc2ccccc2s1 (centres unmarked) [Compound I-480, N-(1-{4-[(hydroxyamino)carbonyl]-2-methoxyphenyl}ethyl)-1-benzothiophene-2-carboxamide]"
19,100 to 500,"CC(C)C(NC(=O)C1CCCCCC1)c1ccc(C(=O)NO)cc1 (centres unmarked) [Compound I-382, N-(1-{4-[(hydroxyamino)carbonyl]phenyl}-2-methylpropyl)cycloheptanecarboxamide]"
20,< 100,"Cc1c(C(=O)N[C@@H](c2ccc(C(=O)NO)cc2)C(C)C)oc2ccccc12 [Compound I-187, N-((1R)-1-{4-[(hydroxyamino)carbonyl]phenyl}-2-methylpropyl)-3-methyl-1-benzofuran-2-carboxamide]"
21,< 100,"Cc1ccc(NC(=O)N[C@@H](c2ccc(C(=O)NO)cc2)C(C)C)cc1C [Compound I-512, 4-[(1R)-1-({[(3,4-dimethylphenyl)amino]carbonyl}amino)-2-methylpropyl]-N-hydroxybenzamide]"
22,100 to 500,"CC(C)(C)C(NC(=O)c1csc2ccccc12)c1ccc(C(=O)NO)cc1 (centres unmarked) [Compound I-158, N-(1-{4-[(hydroxyamino)carbonyl]phenyl}-2,2-dimethylpropyl)-1-benzothiophene-3-carboxamide]"
23,< 100,"CCC[C@@H](NC(=O)C12CC3CC(CC(C3)C1)C2)c1ccc(C(=O)NO)cc1 [Compound I-15, N-((1R)-1-{4-[(hydroxyamino)carbonyl]phenyl}butyl)adamantane-1-carboxamide]"
